Experimental data as given in US11998610B2, “Conjugates and methods of using the same” (Flagship Pioneering Innovations V, Inc., priority 2018, dated 2024).
Non-standard residues stand in square brackets, D forms with d. Residues, ends and D or L forms follow the SMILES beside them. *: point of attachment. Myristoyl = CCCCCCCCCCCCCC(=O)*; Octanoyl = CCCCCCCC(=O)*

Legend:
[1] = Stability of conjugates in Simulated Intestinal Fluid (SIF); assay type: in vitro ADME; conditions: simulated intestinal fluid pH 6.7 with pancreatin, 1 μM, 37° C.
How it was run: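 Conjugates at 1 μM (from 1 mM DMSO stock) were incubated with agitation at 37° C. in freshly made SIF: FaSSIF powder plus pancreatin in pH 6.7 phosphate buffer. Aliquots taken at T0 and at regular intervals were quenched with 1 volume acetonitrile, and LC/MS gave degradation rates.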

WT ClbP = experiment: Assay with purified ClbP protein (LCMS); assay type: biochemical, E. coli; conditions: 20 μM WT ClbP, room temperature, 24 h
Protocol: This example is representative of the method described in Example 91 the soluble peptidase domain (amino acids 38 to 375) of ClbP or the catalytically inert mutant S95A was cloned into pET28a using previously defined boundaries as a starting point (Brotherton, J. Am. Chem. Soc., 135:3359-3362, 2013).
WT ClbP or S95A ClbP was isolated as an N-terminally tagged HiS6-SUMO1-fusion protein from […] using E. coli BL21(DE3)RIPL to express the protein. The cells were lysed in 30 mM Tris pH 8.0, 300 mM NaCl, 10% (v/v) glycerol, benzonase (Sigma-Millipore), lysozyme, B-per (ThermoFisher), and Y-per (ThermoFisher). The lysate was clarified via centrifugation (13,000 g, 20 min), and the supernatant was incubated with HiBond Ni-NTA agarose (5 mL). The resin was subsequently washed with wash buffer (30 mM Tris pH 7.5, 250 mM NaCl, 10 mM imidazole, 3% (v/v) glycerol, and 2 mM TCEP). The resin was incubated at 30° C. for 1 h with 1.4 mg ULP1 protease. The resin was then washed with an additional fraction of wash buffer. Centrifuge filtration was used to concentrate the protein, and the concentrated protein was subsequently applied to a 16/600 Superdex 200 size exclusion column with an isocratic elution of 25 mM HEPES, 25 mM Tris pH 7.4, 325 mM NaCl, 10 mM KCl and 3% (v/v) glycerol at a flow rate of […]. The fractions containing the protein were determined by SDS-PAGE, combined, and concentrated by centrifuge filtration. 3 mM TCEP was added to the concentrated protein, which was then aliquoted, flash frozen in liquid N2, and stored at −80° C.
This example is representative of the method described in Example D, ClbP was incubated with test compounds in an in vitro assay. In a typical assay, 0, 1, or 20 μM purified WT or S95A ClbP was incubated with 100 or 500 μM compound in reaction buffer (50 mM Tris-HCl pH 7.5, 37.5 mM NaCl) at room temperature for 24 h. The total volume of this reaction was 150 μL.
After 24 h, 2 volumes of acetonitrile (300 μL) were added to the reaction to quench the solution.
The reaction was centrifuged (4,000 g, 15 min), and then the supernatant was analyzed by LCMS. 5 μL of the supernatant was injected onto an Acquity UPLC BEH C18 1.7 μm 2.1×100 column. Buffer A was 0.1% (v/v) formic acid in water and buffer B was 0.1% (v/v) formic acid in acetonitrile. The flow rate was 0.5 mL/min. The initial % B was 10, which was held for 30 s then ramped up to 90% B over 3 min, held at 90% B for 1 min, ramped down to 10% B over 15 s, and then held at 10% B for 15 s. The UV-Vis spectrum from 210-400 nm was monitored with 3.6 nm resolution. Positive and negative mode ESI were monitored from 100-1000 m/z with a 20 V cone voltage at 5 Hz sampling frequency in centroid collection.
The relative starting material remaining in the WT ClbP reaction was determined by LCMS and then compared to the residual starting material in the no-enzyme and catalytically inert enzyme (S95A ClbP) reactions. In an ideal case, the amount of residual starting material in the WT ClbP reaction was <25% of the amount in the S95A ClbP and no-enzyme conditions. In an acceptable case, the amount of residual starting material in the WT ClbP reaction was 25-75% of the amount in the S95A ClbP and no-enzyme conditions. In a non-preferred case, the amount of residual starting material in the WT ClbP reaction was >75% of the amount in the S95A ClbP and no-enzyme conditions.
Formation of the anticipated product was likewise quantified by LCMS analysis and confirmed by coelution with an external product standard. In an ideal case, the amount of product formed in the WT ClbP reaction corresponded to >75% of the theoretical maximum. In an acceptable case, the amount of product formed in the WT ClbP reaction corresponded to 25-75% of the theoretical maximum. In a non-preferred case, the amount of product formed in the WT ClbP reaction corresponded to <25% of the theoretical maximum.

| Compound | Assay 2 (SIF) (% @ Remaining 4 hours) [1] | Status (compound remaining in WT ClbP reaction relative to no-enzyme control) (WT ClbP; 100 μM compound) | Status (compound remaining in WT ClbP reaction relative to no-enzyme control) (WT ClbP; 500 μM compound) |
| --- | --- | --- | --- |
| CCCCCCCC(=O)N[C@H](CC(N)=O)C(=O)N[C@@H](CC(C)C)C(=O)OC [Example 7, Methyl octanoyl-D-asparaginyl-L-leucinate] (Octanoyl-[dN]-Leu-OMe) | A (<25% of the tested compound remaining) | ++ (<25% compound remaining in the 20 μM WT ClbP reaction relative to the control) |  |
| CCCCCCCC(=O)N[C@H](CC(N)=O)C(=O)NCCN(C)C(=O)Oc1ccc2c(C)cc(=O)oc2c1 [Example 70, 4-methyl-2-oxo-2H-chromen-7-yl (R)-(2-(4-amino-2-octanamido-4-oxobutanamido)ethyl)(methyl)carbamate] | C (>75% of the tested compound remaining) |  |  |
| CCCCCCCC(=O)N[C@H](CC(N)=O)C(=O)N[C@H](C)C(=O)OC [Example 5, Methyl octanoyl-D-asparaginyl-D-alaninate] (Octanoyl-[dN]-[dA]-OMe) | C (>75% of the tested compound remaining) | ++ (<25% compound remaining in the 20 μM WT ClbP reaction relative to the control) |  |
| CCCCCCCC(=O)N[C@@H](CC(N)=O)C(=O)N[C@@H](C)C(=O)OC [Example 4, Methyl octanoyl-L-asparaginyl-L-alaninate] (Octanoyl-Asn-Ala-OMe) | A (<25% of the tested compound remaining) |  | − (>75% compound remaining in the 20 μM WT ClbP reaction relative to the no-enzyme control) |
| CCCCCCCC(=O)N[C@H](CCC(N)=O)C(=O)N[C@@H](C)C(=O)OC [Example 10, Methyl octanoyl-D-glutaminyl-L-alaninate] (Octanoyl-[dQ]-Ala-OMe) | C (>75% of the tested compound remaining) |  | − (>75% compound remaining in the 20 μM WT ClbP reaction relative to the no-enzyme control) |
| CCCCCCCCCCCCCC(=O)N[C@H](CC(N)=O)C(=O)N[C@@H](C)CCC(=O)OC [Example 21, Methyl (S)-4-((R)-4-amino-4-oxo-2-tetradecanamidobutanamido)pentanoate] | C (>75% of the tested compound remaining) | + (between 25-75% compound remaining in the 20 μM WT ClbP reaction relative to the no-enzyme control) |  |
| CCCCCCCCCCCCCC(=O)N[C@H](CC(N)=O)C(=O)NCCCC(=O)OC [Example 20, Methyl (R)-4-(4-amino-4-oxo-2-tetradecanamidobutanamido)butanoate] | B (25-75% of the tested compound remaining) | − (>75% compound remaining in the 20 μM WT ClbP reaction relative to the no-enzyme control) |  |
| CCCCCCCC(=O)N[C@H](CC(N)=O)C(=O)N[C@@H](C)C(=O)OC [Example 2, Methyl octanoyl-D-asparaginyl-L-alaninate] (Octanoyl-[dN]-Ala-OMe) | A (<25% of the tested compound remaining) | ++ (<25% compound remaining in the 20 μM WT ClbP reaction relative to the control) |  |
| CCCCCCCC(=O)N[C@H](CCCNC(=N)N)C(=O)N[C@@H](C)C(=O)OC [Example 11, Methyl octanoyl-D-arginyl-L-alaninate] (Octanoyl-[dR]-Ala-OMe) | A (<25% of the tested compound remaining) |  | − (>75% compound remaining in the 20 μM WT ClbP reaction relative to the no-enzyme control) |
| COC(=O)[C@H](C)NC(=O)[C@@H](CC(N)=O)NC(=O)[C@@H](C)c1ccc2cc(OC)ccc2c1 [Example 18, Methyl ((S)-2-(6-methoxynaphthalen-2-yl)propanoyl)-D-asparaginyl-L-alaninate] | A (<25% of the tested compound remaining) | ++ (<25% compound remaining in the 20 μM WT ClbP reaction relative to the control) |  |
| CCCCCCCC(=O)N[C@H](CC(N)=O)C(=O)N[C@H](C(=O)OC)C(C)C [Example 6, Methyl octanoyl-D-asparaginyl-L-valinate] (Octanoyl-[dN]-Val-OMe) | A (<25% of the tested compound remaining) | ++ (<25% compound remaining in the 20 μM WT ClbP reaction relative to the control) |  |
| CCCCCCCCCCCCCC(=O)N[C@H](CC(N)=O)C(=O)N[C@@H](C)C(=O)OC [Example 1, Methyl tetradecanoyl-D-asparaginyl-L-alaninate] (Myristoyl-[dN]-Ala-OMe) | A (<25% of the tested compound remaining) |  | − (>75% compound remaining in the 20 μM WT ClbP reaction relative to the no-enzyme control) |
| CCCCCCCC(=O)N[C@H](CCC(=O)O)C(=O)N[C@@H](C)C(=O)OC [Example 9, (R)-5-(((S)-1-methoxy-1-oxopropan-2-yl)amino)-4-octanamido-5-oxopentanoic acid] (Octanoyl-[dE]-Ala-OMe) | B (25-75% of the tested compound remaining) | − (>75% compound remaining in the 20 μM WT ClbP reaction relative to the no-enzyme control) |  |
| CCCCCCCCCCCCCC(=O)N[C@H](CC(N)=O)C(=O)Nc1ccc(COC)cc1 [Example 22, (R)—N1-(4-(methoxymethyl)phenyl)-2-tetradecanamidosuccinamide] | C (>75% of the tested compound remaining) | + (between 25-75% compound remaining in the 20 μM WT ClbP reaction relative to the no-enzyme control) |  |
| CCCCCCCCCCCCCC(=O)N[C@H](CC(N)=O)C(=O)N[C@@H](C)CCC(=O)O[C@]1(CC)C(=O)OCc2c1cc1n(c2=O)Cc2c-1nc1ccc(O)cc1c2CC [Example 35, (S)-4,11-diethyl-9-hydroxy-3,14-dioxo-3,4,12,14-tetrahydro-1H-pyrano[3′,4′:6,7]indolizino[1,2-b]quinolin-4-yl (S)-4-((R)-4-amino-4-oxo-2-tetradecanamidobutanamido)pentanoate] | C (>75% of the tested compound remaining) |  |  |
